“Also recorded” adds a separate entry of the source.
What was measured:
[1] = system: bone marrow-derived dendritic cells (BMDCs); assay: Degree of antigen presentation in BMDCs treated with mRNA and toll-like receptor agonist (anti-OVA SIINFEKL antibodies); assay type: cell-based, mouse; conditions: compared to mRNA only
Procedure: To confirm the efficacy of the composition for an mRNA vaccine of the present invention, an experiment was performed using OVA mRNA which is widely used as an mRNA vaccine. In further detail, first, CleanCap® OVA mRNA (5 moU, L-7210, TriLink Biotechnologies) and Opti-MEM™ (Reduced Serum Medium, ThermoFisher Scientific) were mixed at a volume ratio of 1:49, and Lipofectamine (Lipofectamine™ 2000 Transfection Reagent, ThermoFisher Scientific) and Opti-MEM® were mixed at a volume ratio of 2:23 as a delivery system, and then the above mixtures were mixed again in a volume ratio of 1:1 and reacted for 5 minutes, thereby preparing an mRNA composition. As toll-like receptor agonists, a toll-like receptor 3 agonist, which is polyinosinic-polycytidylic acid (poly I:C, Sigma-Aldrich), a toll-like receptor 4 agonist, which is Lipopolysaccharide (LPS, Sigma-Aldrich), and a toll-like receptor 7 or 8 agonist which is resiquimod (Biorbyt), were used. Poly I:C was used after being dispersed in phosphate buffered saline (PBS) at a concentration of 0.8 mg/mL, LPS was used after being dispersed in PBS at a concentration of 0.3 μg/mL, R848 was first dissolved in dimethyl sulfoxide (DMSO) at a concentration of 20 mg/mL, and then the dissolved solution was dispersed in PBS to a concentration of 20 μg/mL and used. In the case of treatment with a single toll-like receptor agonist, poly I:C was treated at 40 μg/mL. LPS was treated at 30 ng/mL, or R848 was treated at […], and in the case of treatment with a combination of agonists, 2 μg/mL of poly I:C and 1 μg/mL of R848 were treated, or 2 ng/mL of LPS and 1 μg/mL of R848 were treated, and in both cases, mRNA was treated at 1 μg/mL.
To identify the efficacy of the composition for an mRNA vaccine of the present invention, as cells for experiments, bone marrow-derived dendritic cells (BMDCs), plasmacytoid dendritic cells (pDCs), and T cells isolated from the spleen of an ovalbumin-specific TCR-bearing mouse (OT-1 transgenic mouse: OT-1 mouse) were used. BMDCs and pDCs were obtained from the bone marrow of a laboratory mouse, C57BL/6 (female, Orient Bio). In further detail, a 6-weeks-old mouse was euthanized, the femur and tibia were cut, and then a medium was flushed to extract internal materials. In addition, the extracted materials were treated with a red blood cell lysis buffer (BioLegend) to remove red blood cells, and used. For pDCs, 6-weeks-old C57BL/6 was euthanized, the femur and tibia were cut, and then a medium was flushed to extract internal materials. The extracted materials were then treated with a red blood cell lysis buffer (BioLegend) to remove red blood cells, and only pDCs were isolated using a pDC isolation kit (Plasmacytoid Dendritic Cell Isolation Kit, mouse, MACS Miltenyi Biotec) to be used in the experiments. Spleen cells were used by extracting the spleen from an OT-1 laboratory mouse, physically grinding the spleen to prepare single cells, washing the cells with PBS, and removing red blood cells with a red blood cell lysis buffer. The obtained cells were then seeded in a culture plate (Corning petri dish) with a size of 100 mm×25 mm to 2×10^6 cells, and cultured under conditions of 5% CO2 and 37° C. As a culture medium, a complete RPMI 1640 medium(Gibco) to which 20 ng/mL of a granulocyte-macrophage colony-stimulating factor (GM-CSF, Recombinant Mouse GM-CSF Protein, R&D Systems) was added, was used. […]

[2] = system: bone marrow-derived dendritic cells (BMDCs); assay: Cytokine secretion by BMDCs (ELISA: IL-12p70, IL-10, type 1 IFN); assay type: cell-based, mouse
Procedure: To confirm the efficacy of the composition for an mRNA vaccine of the present invention, an experiment was performed using OVA mRNA which is widely used as an mRNA vaccine. In further detail, first, CleanCap® OVA mRNA (5 moU, L-7210, TriLink Biotechnologies) and Opti-MEM™ (Reduced Serum Medium, ThermoFisher Scientific) were mixed at a volume ratio of 1:49, and Lipofectamine (Lipofectamine™ 2000 Transfection Reagent, ThermoFisher Scientific) and Opti-MEM® were mixed at a volume ratio of 2:23 as a delivery system, and then the above mixtures were mixed again in a volume ratio of 1:1 and reacted for 5 minutes, thereby preparing an mRNA composition. As toll-like receptor agonists, a toll-like receptor 3 agonist, which is polyinosinic-polycytidylic acid (poly I:C, Sigma-Aldrich), a toll-like receptor 4 agonist, which is Lipopolysaccharide (LPS, Sigma-Aldrich), and a toll-like receptor 7 or 8 agonist which is resiquimod (Biorbyt), were used. […]
To confirm the effect of a composition for an mRNA vaccine including a single toll-like receptor in BMDCs, first, BMDCs were treated with a toll-like receptor agonist and modified-mRNA (5-methoxyuridine modified OVA mRNA, TriLink) in the same manner as in Example 12.1, and an antigen presentation degree, amounts of cell surface molecules and levels of cytokines such as interleukin-12p70 (IL-12p70) and interferon were measured. […]

[3] = system: T cells isolated from the spleen of an OT-1 mouse; assay: OT-1 T cell activation in co-culture of treated BMDCs and T cells; assay type: cell-based; conditions: BMDC/T cell co-culture
[4] = agonist and mRNA at the same time (0h)
[5] = agonist four hours after mRNA (4h)
[6] = agonist and mRNA at the same time (0h), compared to mRNA alone

| Substance | degree of antigen presentation [1, 4] | degree of antigen presentation [1, 5] | secretion of type 1 IFN [2, 4] | secretion of type 1 IFN [2, 5] | amount of IFN-γ+ T cells ([3]; agonist 4h after mRNA) | level of IL-2 ([3]; agonist 4h after mRNA) | level of secreted IFN-γ ([3]; agonist 4h after mRNA) | amount of IFN-γ+ T cells ([3]; agonist 8h after mRNA) | level of IL-2 ([3]; agonist 8h after mRNA) | level of secreted IFN-γ ([3]; agonist 8h after mRNA) | amount of IFN-γ+ T cells [3, 6] | level of IL-2 [3, 6] | level of secreted IFN-γ [3, 6] | degree of antigen presentation ([1]; agonist eight hours after mRNA (8h)) |
| --- | --- | --- | --- | --- | --- | --- | --- | --- | --- | --- | --- | --- | --- | --- |
| polyinosinic-polycytidylic acid [poly I:C] | remarkably reduced | significantly increased | markedly increased | reduced | markedly increased | highest; also recorded: markedly increased | markedly increased | markedly increased | markedly increased | markedly increased | remarkably reduced | remarkably reduced | remarkably reduced |  |
| Lipopolysaccharide [LPS] | reduced | increased |  |  |  |  |  |  |  |  |  |  |  | increased |
